Assays:
PIK3CA = biological target: T1, PIK3CA (Homo sapiens, UniProt P42336); experiment: In vitro ELISA target engagement assay for PIK3CA in Jurkat cellular lysate (competition with PIK3CA Biotin Probe); assay type: binding; settings: 1 hour at rt, then 500 nM PIK3CA Biotin Probe, read-out: Elisa Target Engagement Assay (TE50)
T1 construct: endogenous in cells; host or cells: Jurkat cell lysate
Method in brief: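 Jurkat lysate from sonicated frozen cells was preincubated 1 h at rt with serially diluted compound up to 200 μM, then labelled 1 h at rt with PIK3CA biotin probe at 500 nM final. Probe-bound PIK3CA was captured on antibody-coated plates and detected with Neutravidin-HRP luminescence; TE50 derived from the dose response.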

[1] = test system: pAKT(S473) in FaDu cell line; experiment: In vitro Phospho-AKT(S473) HTRF analysis in FaDu cells; assay type: cell-based; settings: Homo sapiens, 0.5 h; for IC50: FaDu cells, 30 minutes at 37° C.; for Emax: FaDu, read-out: FaDu pAKT Imax % control
Description: Example 5. In Vitro Phosgho-AKT(S473) Analysis
Functional activity of the compounds to inhibit pAKT were assessed in FaDu or H358 cell lines as indicated below.
• Complete Media • FBS, Corning catalog #35-010-CV • Anti-Anti, Gibco catalog #15240-062 • 96 well plate, Corning catalog #3610 • TrypLE, Gibco catalog #12604013 • Phospho-AKT(S473) HTRF kit, Cisbio catalog #64AKSPET
Cells were detached from the tissue culture flask with TrypLE. The cells were pelleted at 500×g for 5 min, TrypLe was removed and then resuspended in the necessary volume of media+1% FBS to give the appropriate cell density (17,500 cells/mL for FaDu; 20,000 cells/mL for H358). 100 μL of cell suspension/well was dispensed into the 96-well plate while keeping the outer wells of the plate free of cells and filled with PBS to prevent evaporation of interior wells. The plate was incubated at 37° C. and allowed to adhere overnight. The cells were treated with a dose response of compound and incubated at 37° C. for 30 minutes. The cells were then processed and pAKT(S473) levels were assessed following the specifications of the Cisbio HTRF kit.

T1 sequence (P42336 whole entry): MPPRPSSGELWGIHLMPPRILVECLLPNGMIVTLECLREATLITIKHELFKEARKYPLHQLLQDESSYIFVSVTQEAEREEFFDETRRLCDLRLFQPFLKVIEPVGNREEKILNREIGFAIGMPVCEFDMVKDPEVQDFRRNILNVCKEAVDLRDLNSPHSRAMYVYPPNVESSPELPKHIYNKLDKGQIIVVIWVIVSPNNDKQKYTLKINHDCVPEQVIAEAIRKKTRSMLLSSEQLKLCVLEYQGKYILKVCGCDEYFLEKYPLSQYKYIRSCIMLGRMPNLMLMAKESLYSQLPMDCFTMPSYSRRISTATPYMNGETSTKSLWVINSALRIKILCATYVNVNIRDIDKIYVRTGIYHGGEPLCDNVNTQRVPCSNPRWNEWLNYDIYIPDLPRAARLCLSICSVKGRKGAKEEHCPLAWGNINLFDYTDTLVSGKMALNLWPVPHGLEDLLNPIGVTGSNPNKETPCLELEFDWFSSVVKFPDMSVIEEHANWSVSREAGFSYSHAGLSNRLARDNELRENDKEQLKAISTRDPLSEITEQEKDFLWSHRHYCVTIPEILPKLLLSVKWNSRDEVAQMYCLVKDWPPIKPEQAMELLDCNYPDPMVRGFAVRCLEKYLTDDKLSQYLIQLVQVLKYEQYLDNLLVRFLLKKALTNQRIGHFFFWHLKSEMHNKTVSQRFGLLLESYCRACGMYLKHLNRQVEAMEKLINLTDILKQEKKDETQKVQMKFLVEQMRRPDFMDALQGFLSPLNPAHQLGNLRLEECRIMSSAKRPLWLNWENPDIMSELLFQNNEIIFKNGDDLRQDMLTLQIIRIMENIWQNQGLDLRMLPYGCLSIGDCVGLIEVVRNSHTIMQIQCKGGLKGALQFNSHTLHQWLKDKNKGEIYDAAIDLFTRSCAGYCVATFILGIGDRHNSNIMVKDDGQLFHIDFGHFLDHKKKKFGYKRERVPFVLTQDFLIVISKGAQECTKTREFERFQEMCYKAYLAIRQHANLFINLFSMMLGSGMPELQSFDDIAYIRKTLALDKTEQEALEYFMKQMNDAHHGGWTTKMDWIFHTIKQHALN
T1 sequence (P27986 whole entry partner): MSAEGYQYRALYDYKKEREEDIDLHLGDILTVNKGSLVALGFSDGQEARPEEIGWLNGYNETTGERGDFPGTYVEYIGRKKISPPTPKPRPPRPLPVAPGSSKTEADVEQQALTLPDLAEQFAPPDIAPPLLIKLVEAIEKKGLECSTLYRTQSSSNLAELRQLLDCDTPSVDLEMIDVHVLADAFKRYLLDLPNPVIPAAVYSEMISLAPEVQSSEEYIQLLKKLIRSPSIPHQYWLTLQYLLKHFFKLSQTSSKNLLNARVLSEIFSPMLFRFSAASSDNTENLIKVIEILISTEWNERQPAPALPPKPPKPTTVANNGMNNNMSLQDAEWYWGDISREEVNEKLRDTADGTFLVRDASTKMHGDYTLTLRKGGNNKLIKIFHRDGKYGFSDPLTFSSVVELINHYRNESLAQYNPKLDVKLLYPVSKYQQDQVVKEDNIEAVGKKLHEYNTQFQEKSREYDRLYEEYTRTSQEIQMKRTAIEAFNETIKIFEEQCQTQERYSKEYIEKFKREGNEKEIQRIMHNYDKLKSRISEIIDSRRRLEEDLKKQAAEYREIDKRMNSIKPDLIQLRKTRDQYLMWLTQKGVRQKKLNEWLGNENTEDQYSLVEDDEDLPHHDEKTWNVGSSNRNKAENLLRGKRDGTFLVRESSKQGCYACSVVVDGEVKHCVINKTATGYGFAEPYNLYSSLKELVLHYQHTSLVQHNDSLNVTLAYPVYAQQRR

SMILES | IC50 (PIK3CA) | IC50 [1] | Emax [1]
C[C@H](/C=C\S(C)(=O)=O)NC(=O)C1(F)CCN(C(=O)[C@H]2CN(CC(F)F)C[C@H]2c2ccccc2Cl)CC1 [Compound 206, 1-((3R,4R)-4-(2-chlorophenyl)-1-(2,2-difluoroethyl)pyrrolidine-3-carbonyl)-4-fluoro-N-((R,Z)-4-(methylsulfonyl)but-3-en-2-yl)piperidine-4-carboxamide] | 800 nM | 718 nM | 106%
C[C@@H](NC(=O)C1(F)CCN(S(=O)(=O)c2ccc(Br)cc2-c2ccccc2Cl)CC1)C1=CS(=O)(=O)C1 (single isomer, unassigned) [Compound 234, (*R)-1-((5-bromo-2′-chloro-[1,1′-biphenyl]-2-yl)sulfonyl)-N-(1-(1,1-dioxido-2H-thiet-3-yl)ethyl)-4-fluoropiperidine-4-carboxamide] | 140 nM | 100 nM | –
C[C@H](/C=C\S(C)(=O)=O)NC(=O)[C@]1(F)CCN(S(=O)(=O)c2ccc(Br)cc2-c2ccccc2Cl)[C@H](C)C1 [Compound 143, (2R,4S)-1-((5-bromo-2′-chloro-[1,1′-biphenyl]-2-yl)sulfonyl)-4-fluoro-2-methyl-N-((R,Z)-4-(methylsulfonyl)but-3-en-2-yl)piperidine-4-carboxamide] | 66.5 nM | 117 nM | 111%
[2H]C([2H])([2H])Oc1ccc(S(=O)(=O)N2CC[C@@](F)(C(=O)N[C@H](C)/C=C\S(C)(=O)=O)C[C@H]2C)c(-c2ccccc2Cl)c1 [Compound 301, (2R,4S)-1-((2′-chloro-5-(methoxy-d3)-[1,1′-biphenyl]-2-yl)sulfonyl)-4-fluoro-2-methyl-N-((R,Z)-4-(methylsulfonyl)but-3-en-2-yl)piperidine-4-carboxamide] | 77 nM | 117 nM | 99.8%

Now from value to molecule, other results behind:

IC50 (PIK3CA) | IC50 [1] | SMILES | Emax [1]
580 nM | 518 nM | C[C@H](/C=C\S(C)(=O)=O)NC(=O)[C@@]1(F)CCCN(C(=O)[C@H]2CN(CC(F)(F)F)C[C@H]2c2ccc(F)cc2Cl)CC1 (single isomer, unassigned) [Compound 167, (R)-1-((3*R,4*R)-4-(2-chloro-4-fluorophenyl)-1-(2,2,2-trifluoroethyl)pyrrolidine-3-carbonyl)-4-fluoro-N-((R,Z)-4-(methylsulfonyl)but-3-en-2-yl)azepane-4-carboxamide] | 93.6%
760 nM | 484 nM | Cc1ccc(Cl)c([C@@H]2CN(CC(F)(F)F)C[C@@H]2C(=O)N2CCC[C@](F)(C(=O)N[C@H](C)/C=C\S(C)(=O)=O)CC2)c1 (single isomer, unassigned) [Compound 170, (R)-1-((3*R,4*R)-4-(2-chloro-5-methylphenyl)-1-(2,2,2-trifluoroethyl)pyrrolidine-3-carbonyl)-4-fluoro-N-((R,Z)-4-(methylsulfonyl)but-3-en-2-yl)azepane-4-carboxamide] | 83.2%
580 nM | 505 nM | Cc1cccc([C@@H]2CN(CC(F)(F)F)C[C@@H]2C(=O)N2CCC[C@](F)(C(=O)N[C@H](C)/C=C\S(C)(=O)=O)CC2)c1Cl (single isomer, unassigned) [Compound 172, (R)-1-((3*R,4*R)-4-(2-chloro-3-methylphenyl)-1-(2,2,2-trifluoroethyl)pyrrolidine-3-carbonyl)-4-fluoro-N-((R,Z)-4-(methylsulfonyl)but-3-en-2-yl)azepane-4-carboxamide] | 97.9%
300 nM | 187 nM | C[C@H](/C=C\S(C)(=O)=O)NC(=O)[C@@]1(F)CCCN(C(=O)[C@H]2CN(CC(F)(F)F)C[C@H]2c2cc(F)ccc2Cl)CC1 (single isomer, unassigned) [Compound 166, (R)-1-((3*R,4*R)-4-(2-chloro-5-fluorophenyl)-1-(2,2,2-trifluoroethyl)pyrrolidine-3-carbonyl)-4-fluoro-N-((R,Z)-4-(methylsulfonyl)but-3-en-2-yl)azepane-4-carboxamide] | 78.9%

From patent US20250026721A1, “COMPOUNDS AND METHODS FOR MODULATING RAS-PI3K” (Vividion Therapeutics, Inc., priority 2023, published 2025)
